Values belong to the molecule of their own block, whether it stands above or below them.
How the values were obtained:
LRAT mRNA = assay: Northern blot analysis of LRAT transcripts after culture with retinoic acid; assay type: cell-based, human; settings: 1 μM retinoic acid for 48 h; HUVEC, CCD42-SK, GM0970, HMEC, HNBE, NT2
Description: (§1) Total cellular RNA was isolated from cultured cells using RNA Stat-60 according to the manufacturer's instruction (Tel-Test, Friendswood, Tex.). RNA was electrophoretically fractionated by size on 1% agarose/2.2 M formaldehyde gels, transferred to nylon filters by blotting, and attached to the filters using a UV Stratalinker 1800. The cDNA probes used in this analysis were radiolabeled with [^32P]dCTP using a random primer labeling kit (Boehringer Mannheim, Indianapolis, Ind.) according to the manufacturer's directions. Glyceraldehyde phosphate dehydrogenase cDNA was used as a probe for Northern blots as described previously (Guo, et al. Cancer Res. 1998, 58:166-176; Chen, et al. J. Biol. Chem. 1996, 271:14971-14980). AHD-2 cDNA, isolated from a murine liver cDNA library by this laboratory (Chen, Mol. Pharm. 1994, 46:88-96), was used as a probe; this cDNA encodes an aldehyde dehydrogenase class I enzyme, also called ALDH-1 in human. The human LRAT cDNA clone was an Eco RI fragment (840 bp) as described (Ruiz, et al. J. Biol. Chem. 1999, 274:3834-3841). The human neutral, bile salt independent retinyl ester hydrolase and the hepatic, bile sale dependent retinyl ester hydrolase were EST clones #g4069398 and #g2237729, respectively, from Genome Systems (St. Louis, Mo.). […]

[1] = system: RA hydroxylase (CYP26) gene; assay: Northern blot analysis of RA hydroxylase (CYP26) gene in MCF-7; assay type: cell-based, human; settings: MCF-7 following retinoic acid addition
Description: as §1

[2] = system: RA hydroxylase (CYP26) gene; assay: Northern blot analysis of RA hydroxylase (CYP26) gene in other tumor lines and normal cell strains; assay type: cell-based, human; settings: other tumor lines or normal cell strains cultured with or without RA
Description: as §1

[3] = system: normal epithelial cell strains HMEC, ADO74, NHEK, OKP-7; assay: [^3H]retinol esterification in normal epithelial cell strains; assay type: cell-based, human; settings: 50 nM [^3H]retinol in the medium
Procedure: (§2) All retinoid solutions and samples were handled under red or dim light. […] A separate control consisting of labeling medium without cells was included during the incubation period. Cells and one-fourth of the media were collected. Cells were washed once with 0.5 ml of phosphate-buffered saline (PBS) and removed from the monolayer in 0.5 ml PBS by scraping. Samples were stored at −70° C. until retinoid extraction. The cell numbers were counted from parallel dishes from each treatment at the time of cell harvest. The retinoids were extracted as described previously (McLean, et al. Clin. Chem. 1982, 28:693-696). Non-radiolabeled retinoid standards were added to the samples prior to extraction. Briefly, 350 μl acetonitrile/butanol (50:50, v/v), 0.1% butylated hydroxytoluene (BHT) was added to 0.5 ml of cells or medium samples. The mixtures were vortexed thoroughly for 30 sec. After addition of 300 μl of a saturated (1.3 kg/liter) K2HPO4 solution and thorough mixing, the samples were centrifuged for 10 min at 3000 g. […] The HPLC analysis was performed using a Waters Millenium system (Waters Corp.) to separate the various retinoids. […] Non-radiolabeled retinoid standards were run concurrently and monitored at a wavelength of 340 nm while a Packard A-500 radiochromatography detector (Packard Instruments, Downers Grove, Ill.) was used to monitor the labeled retinoids. […]

[4] = system: fibroblast cell strains GM0970 and CCD42-SK; assay: [^3H]retinol metabolism in normal fibroblast cell strains; assay type: cell-based, human; settings: 15-24 h culture in the presence of [^3H]retinol
Procedure: as §2

[5] = system: human umbilical vein endothelial cells (HUVEC); assay: [^3H]retinol metabolism in HUVEC; assay type: cell-based; settings: 15 h culture, 50 nM [^3H]retinol
Procedure: as §2

[6] = system: normal human bronchial epithelial cells (NHBE); assay: [^3H]retinol esterification in NHBE; assay type: cell-based; settings: 15 h culture
Procedure: as §2

[7] = system: normal human epidermal keratinocytes (NHEK); assay: [^3H]retinol esterification in NHEK; assay type: cell-based; settings: 15 h culture
Procedure: as §2

[8] = system: MCF-7 breast carcinoma cell line; assay: [^3H]retinol esterification in MCF-7; assay type: cell-based, human; settings: MCF-7, 22 h culture, 50 nM
Procedure: as §2

[9] = system: SCC-12 skin squamous carcinoma line; assay: [^3H]retinol esterification in SCC-12; assay type: cell-based, human; settings: SCC-12, 22 h culture, 50 nM
Procedure: (§3) The retinoids were extracted as described previously (McLean, et al. Clin. Chem. 1982, 28:693-696). Non-radiolabeled retinoid standards were added to the samples prior to extraction. Briefly, 350 μl acetonitrile/butanol (50:50, v/v), 0.1% butylated hydroxytoluene (BHT) was added to 0.5 ml of cells or medium samples. The mixtures were vortexed thoroughly for 30 sec. After addition of 300 μl of a saturated (1.3 kg/liter) K2HPO4 solution and thorough mixing, the samples were centrifuged for 10 min at 3000 g. The upper organic layer was collected and transferred to an injector vial for automated HPLC analysis.
(§4) The HPLC analysis was performed using a Waters Millenium system (Waters Corp.) to separate the various retinoids. Samples were applied to an analytical 5 μm reverse-phase C18 column (Vydac, Hesperia, Calif.) at a flow rate of 1.5 ml/min. The gradient consisted of a 35 min linear gradient from 15 mM ammonium acetate, pH 6.5, in water to 85% acetonitrile in a 10 min linear gradient from 85% acetonitrile to acetonitrile-dichloromethane (80:20) followed by a 15 min hold. Non-radiolabeled retinoid standards were run concurrently and monitored at a wavelength of 340 nm while a Packard A-500 radiochromatography detector (Packard Instruments, Downers Grove, Ill.) was used to monitor the labeled retinoids. […]

[10] = system: SCC-40 carcinoma line from the soft palate; assay: [^3H]retinol esterification in SCC-40; assay type: cell-based, human; settings: SCC-40, 22 h exposure, 50 nM
Procedure: as §2

OKP-7 cells = assay: [^3H]retinol pulse chase in OKP-7; assay type: cell-based, human
Procedure: (§5) For the pulse chase experiments, the cells were cultured for 24 h in 100 nM [^3H]retinol. Cells were then rinsed three times with warm PBS over a 30 minute period, and then incubated in growth medium without [^3H]retinol for an additional one to eight days. At various times following the removal of [^3H]retinol from the medium, dishes of cells were harvested and retinoids were extracted and subjected to HPLC analysis.
as §3
as §4, with “The gradient consisted of a 35 min linear gradient from 15 mM ammonium acetate, pH 6.5, in water to 85% acetonitrile in a 10 min linear gradient from 85% acetonitrile to acetonitrile-dichloromethane (80:20) followed by a 15 min hold.” left out
(§6) Therefore, in this series of experiments the cells were cultured in the presence of 100 nM [^3H]retinol and 900 nM retinol in the medium for 24 h, followed by the removal of the [^3H]retinol from the medium. The cells were washed several times, and then dishes of cells were harvested at various times following the removal of [^3H]retinol from the medium, retinoids were extracted from the cells, and the [^3H]retinoids were analyzed by HPLC.

ADO74 cells = assay: [^3H]retinol pulse chase in ADO74; assay type: cell-based, human
Procedure: as §5, §3
as §4, with “The gradient consisted of a 35 min linear gradient from 15 mM ammonium acetate, pH 6.5, in water to 85% acetonitrile in a 10 min linear gradient from 85% acetonitrile to acetonitrile-dichloromethane (80:20) followed by a 15 min hold.” left out
as §6

[11] = system: SCC-40 squamous cell carcinoma line; assay: [^3H]retinol pulse chase in SCC-40; assay type: cell-based, human
Procedure: as §5
(§7) The retinoids were extracted as described previously (McLean, et al. Clin. Chem. 1982, 28:693-696). Non-radiolabeled retinoid standards were added to the samples prior to extraction. […]
(§8) The HPLC analysis was performed using a Waters Millenium system (Waters Corp.) to separate the various retinoids. […] Non-radiolabeled retinoid standards were run concurrently and monitored at a wavelength of 340 nm while a Packard A-500 radiochromatography detector (Packard Instruments, Downers Grove, Ill.) was used to monitor the labeled retinoids. […]
as §6

[12] = system: MDA-MB-231 breast carcinoma line; assay: [^3H]retinol pulse chase in MDA-MB-231; assay type: cell-based, human
Procedure: as §5, §7, §8, §6

[13] = OKP-7, four to eight days after [^3H]retinol removal
[14] = ADO74, four to eight days after [^3H]retinol removal

expression of RA hydroxylase (CYP26) gene [1]: strongly expressed
Molecule: CC1=C(/C=C/C(C)=C/C=C/C(C)=C/C(=O)O)C(C)(C)CCC1 [retinoic acid, all-trans retinoic acid]
effect on levels of LRAT mRNA (LRAT mRNA): a slight increase in LRAT mRNA | expression of RA hydroxylase (CYP26) gene [2]: not expressed at detectable levels

time by which all of the [^3H]retinol in the medium had been esterified [3]: 6 to 8 h | esterification of [^3H]retinol to retinyl esters [6]: extensive esterification | esterification of [^3H]retinol to retinyl esters [7]: extensive esterification | [^3H]retinol esterification [9]: some [^3H]retinol esterification | intracellular concentration of [^3H]retinyl esters (OKP-7 cells; OKP-7, four days after removal of [^3H]retinol, 100 nM [^3H]retinol and 900 nM retinol for 24 h): approximately 26 μM | intracellular concentration of [^3H]retinoic acid (OKP-7 cells; [13]): 1 to 2 µM | intracellular concentration of [^3H]retinol (OKP-7 cells; [13]): 3 to 10 µM | intracellular concentration of [^3H]retinyl esters (ADO74 cells; ADO74, four days after removal of [^3H]retinol, 100 nM [^3H]retinol and 900 nM retinol for 24 h): ~30 µM | intracellular concentration of [^3H]retinoic acid (ADO74 cells; [14]): 1 to 2 µM | intracellular concentration of [^3H]retinol (ADO74 cells; [14]): 3 to 10 µM | time after removal by which no [^3H]retinol is detectable intracellularly ([11]; SCC-40): ≤ 24 h | retinyl esters at the time of [^3H]retinol removal ([11]; SCC-40, day 0): no detectable retinyl esters | time after removal by which no [^3H]retinol is detectable intracellularly ([12]; MDA-MB-231): ≤ 24 h | retinyl esters at the time of [^3H]retinol removal ([12]; MDA-MB-231, day 0): no detectable retinyl esters
Molecule: [^3H]retinol
retinol metabolism [4]: Essentially no retinol metabolism occurred | retinyl esters found [5]: only trace amounts of retinyl esters were found | [^3H]retinol esterification [8]: did not exhibit [^3H]retinol esterification | [^3H]retinol esterification [10]: did not exhibit any significant [^3H]retinol esterification
